Experimental data from patent US9247738B2, “Method and composition for inhibition of microbial growth in aqueous food transport and process streams” (Ecolab USA Inc., priority 2000, dated 2016).

What was measured:
Format in all cases: cell-based
Candida parapsilosis = test: Rate of fungus kill in use-solution; conditions: 80 ppm total peracid, 25° C.
Method: (§1) Routine transfer to Sabouraud Dextrose agar slants maintained cultures of Candida parapsilosis (from blueberry processing water), Rhodotorula species (from celery processing water), Cryptococcus species (from potato processing water) and Zygosaccharomyces bailii (ATCC 60483). Growth was harvested by adding 5 mL of phosphate buffered water to the slant, mixing and then transferring the suspension into 90 mL of phosphate buffered water. The resulting suspension was used for testing.
(§2) Two antimicrobial agents were used for testing. The first agent contained peroxyacetic acid. The second contained a peroxyacetic acid/peroxyoctanoic acid mixture. Both agents were diluted in sterile deionized water to achieve a total peracid concentration of 80 ppm. The composition of the use-solutions were as follows:
(§3) The rate at which peroxyacetic acid and a peroxyacetic acid/peroxyoctanoic acid mixture killed fungi was measured by inoculating use-solutions of each antimicrobial agent with fungi and then quantifying survivors after various exposure times.
(§4) Testing was performed in duplicate. 99 mL of each antimicrobial use-solution was transferred to a 250 mL Erlenmeyer flask and allowed to equilibrate to 25° C. The liquid in the flask was swirled vigorously in a rapid circular motion and 1 mL of a fungus suspension was added. After 30 seconds, 2, 5 or 10 minutes 1 mL quantities of the use-solution were transferred to 9 mL of an inactivating solution including 0.1% sodium thiosulfate. 1 mL quantities of the inactivating solution were pour-plated using Sabouraud Dextrose agar. Serial 100-fold dilutions of the inactivating solution were also plated. Agar plates were incubated for 72 hours at 26° C. before counting survivors. The log reduction of fungi due to the antimicrobial agent was determined by comparing reduction to a water control.

Cryptococcus species = test: Rate of fungus kill in use-solution; conditions: Cryptococcus sp., 80 ppm total peracid, 25° C.
Method: as §1, §2, §3, §4

Rhodotorula species = test: Rate of fungus kill in use-solution; conditions: Rhodotorula sp., 80 ppm total peracid, 25° C.
Method: as §1, §2, §3, §4

[1] = tested on: Zygosaccharomyces bailii (ATCC 60483); test: Rate of fungus kill in use-solution; conditions: Z. bailii, 80 ppm total peracid, 25° C.
Method: as §1, §2, §3, §4

Aspergillus species = test: Rate of fungus kill in use-solution (mold conidia); conditions: Aspergillus sp., 80 ppm total peracid, 25° C.
Method: (§5) Routine transfer to Sabouraud Dextrose agar slants maintained cultures of Aspergillus species (from onion processing water), Penicillium species (from celery processing water) and Cladosporium species (from potato processing water). Conidia suspensions of each mold were prepared by subculturing each mold to Sabouraud Dextrose agar plates and incubating until thick aerial mycelia with conidia were evident. Conidia were harvested by adding approximately 10 mL of phosphate buffered water to the plate, scraping the mycelia and collecting the suspension in a flask. The suspension was filtered through sterile gauze to remove large mycelia fragments from the conidia. The resulting suspension was used for testing.
as §2, §3, §4

Cladosporium species = test: Rate of fungus kill in use-solution (mold conidia); conditions: Cladosporium sp., 80 ppm total peracid, 25° C.
Method: as §5, §2, §3, §4

Penicillium species = test: Rate of fungus kill in use-solution (mold conidia); conditions: Penicillium sp., 80 ppm total peracid, 25° C.
Method: as §5, §2, §3, §4

total aerobic bacteria = test: Antimicrobial efficacy in fresh-cut vegetable processing water, Aerobic Plate Count
Method: (§6) Vegetable processing water testing was done using the same antimicrobial agents as in laboratory aqueous system testing. The varying concentrations of each agent are listed in the results section. Municipal tap water was the diluent.
(§7) The reduction of microorganisms in vegetable processing water treated with peroxyacetic acid or a peroxyacetic acid/peroxyoctanoic acid mixture was determined. Testing was done in two separate recycled water systems. In both systems, cut vegetables fell into a water stream that carried them to a de-watering area where they were collected for further processing. The water that the vegetables traveled in was routed to a balance tank that fed back into the original water stream thus completing the process loop. One system was used to wash cut, raw celery or cabbage. The other system was used to transport cut, raw potatoes to a blancher.
(§8) During processing of each vegetable, 10 water samples were collected in sterile plastic bags containing an inactivating agent (0.01% sodium thiosulfate). 1 mL quantities were plated on Petrifilm® (3M, Inc.) Aerobic Plate Count, Coliform Count and Yeast & Mold Count media. Validation of these media using this procedure was performed prior to initiating testing (data not presented). Serial 100-fold dilutions were also plated. Petrifilms were incubated at 35° C. for 24 hours (Coliform Count), 35° C. for 48 hours (Aerobic Plate Count), or at room temperature for 72 hours (Yeast & Mold Count). The number of microorganisms was counted following incubation.
(§9) The same analysis was used to evaluate the significance of reduction on vegetable surfaces.

coliform bacteria [2] = test: Antimicrobial efficacy in fresh-cut vegetable processing water, Coliform Count
Method: as §6, §7, §8, §9

yeast and mold = test: Antimicrobial efficacy in fresh-cut vegetable processing water, Yeast & Mold Count
Method: as §6, §7, §8, §9

Aerobic Bacteria = test: Antimicrobial efficacy on fresh-cut vegetables, aerobic bacteria; conditions: 30 second exposure to process water
Method: as §6, §7
(§10) Microorganism reduction on vegetable surfaces in the transport and process water was determined while water analyses were being conducted. Ten samples of each cut vegetable were collected just prior to falling into the process water stream and just after de-watering.
(§11) Eleven grams of each sample were transferred to bag containing 99 mL of sterile phosphate buffered water. Contents of the bag were mixed in a Stomacher brand mixer for approximately 1 minute. Afterwards, 1 mL of the mixture was plated on Petrifilm brand Aerobic Plate Count, Coliform Count and Yeast & Mold Count media. 1 mL quantities of 100-fold serial dilutions were also plated. Petrifilms were incubated and enumerated as described above in this Example.
as §9

coliform bacteria [3] = test: Antimicrobial efficacy on fresh-cut vegetables, coliform bacteria; conditions: 30 second exposure to process water
Method: as §6, §7, §10, §11, §9

Yeast & Mold = test: Antimicrobial efficacy on fresh-cut vegetables, yeast & mold; conditions: 30 second exposure to process water
Method: as §6, §7, §10
Eleven grams of each sample were transferred to bag containing 99 mL of sterile phosphate buffered water. Contents of the bag were mixed in a Stomacher brand mixer for approximately 1 minute. […] 1 mL quantities of 100-fold serial dilutions were also plated. […]

Escherichia coli O157:H7 = test: Kill of pathogenic bacteria on tomato surfaces and in the wash solution
Method: (§12) The following procedure was employed for determining whether a composition killed pathogenic bacteria (e.g. Escherichia coli O157:H7, Listeria monocytogenes, or Salmonella javiana) on the surface of a fruit or vegetable. Bacteria were applied to tomato surfaces and allowed a 1-2 hour attachment time. Contaminated tomatoes were submersed in a peroxyacetic/peroxyoctanoic acid mixture according to the present invention (at a level yielding 40 ppm peroxyacetic acid) or water for 1 minute without agitation. After 1 minute, tomatoes were transferred to a solution that neutralized the peroxy acids and peroxides and massaged for 3 minutes to remove attached bacteria. The number of attached bacteria that survived treatment was determined using standard agar plating technique. The number of bacteria that “fell off” the tomato into the water or peroxyacetic/peroxyoctanoic acid mixture according to the present invention, and survived, was also determined by neutralization and agar plating technique. A similar experiment was conducted employing a peroxyacetic acid antimicrobial composition.

Salmonella javiana = test: as above
Method: as §12

Listeria monocytogenes = test: as above
Method: The following procedure was employed for determining whether a composition killed pathogenic bacteria (e.g. Escherichia coli O157:H7, Listeria monocytogenes, or Salmonella javiana) on the surface of a fruit or vegetable. Bacteria were applied to tomato surfaces and allowed a 1-2 hour attachment time. […] After 1 minute, tomatoes were transferred to a solution that neutralized the peroxy acids and peroxides and massaged for 3 minutes to remove attached bacteria. The number of attached bacteria that survived treatment was determined using standard agar plating technique. The number of bacteria that “fell off” the tomato into the water or peroxyacetic/peroxyoctanoic acid mixture according to the present invention, and survived, was also determined by neutralization and agar plating technique. A similar experiment was conducted employing a peroxyacetic acid antimicrobial composition.

[4] = Cabbage process water, average peracid from POAA agent 26 ppm, from POAA/POOA agent 29 ppm
[5] = Celery process water, average peracid from POAA agent 38 ppm, from POAA/POOA agent 39 ppm
[6] = Potatoes process water, average peracid from POAA agent 54 ppm, from POAA/POOA agent 32 ppm
[7] = Cabbage, peracid POAA agent 26 ppm, POAA/POOA agent 29 ppm
[8] = Celery, peracid POAA agent 38 ppm, POAA/POOA agent 39 ppm
[9] = Potatoes, peracid POAA agent 54 ppm, POAA/POOA agent 32 ppm

## CC(=O)OO [POAA, peroxyacetic acid]
Candida parapsilosis; 2 Minutes
  Average log reduction of yeast: 1.49 log
Candida parapsilosis; 5 Minutes
  Average log reduction of yeast: 3.42 log
Candida parapsilosis; 30 Seconds
  Average log reduction of yeast: 0.34 log
Cryptococcus species; 2 Minutes
  Average log reduction of yeast: >7.08 log
Cryptococcus species; 5 Minutes
  Average log reduction of yeast: >7.08 log
Cryptococcus species; 30 Seconds
  Average log reduction of yeast: >7.08 log
Rhodotorula species; 2 Minutes
  Average log reduction of yeast: >3.88 log
Rhodotorula species; 5 Minutes
  Average log reduction of yeast: >3.88 log
Rhodotorula species; 30 Seconds
  Average log reduction of yeast: >3.88 log
[1]; 2 Minutes
  Average log reduction of yeast: 0.18 log
[1]; 5 Minutes
  Average log reduction of yeast: 0.94 log
[1]; 30 Seconds
  Average log reduction of yeast: 0.16 log
Aspergillus species; 2 Minutes
  Average log reduction of mold: 0 log
Aspergillus species; 5 Minutes
  Average log reduction of mold: 0 log
Aspergillus species; 10 Minutes
  Average log reduction of mold: 0 log
Cladosporium species; 2 Minutes
  Average log reduction of mold: 1.86 log
Cladosporium species; 5 Minutes
  Average log reduction of mold: 4.18 log
Cladosporium species; 10 Minutes
  Average log reduction of mold: >4.18 log
Penicillium species; 2 Minutes
  Average log reduction of mold: 0 log
Penicillium species; 5 Minutes
  Average log reduction of mold: 0.45 log
Penicillium species; 10 Minutes
  Average log reduction of mold: 1.52 log
Total aerobic bacteria; [4]
  Average number of microorganisms in process water, Aerobic Plate Count: 1.92 log CFU/mL
Total aerobic bacteria; [5]
  Average number of microorganisms in process water, Aerobic Plate Count: 2.02 log CFU/mL
Total aerobic bacteria; [6]
  Average number of microorganisms in process water, Aerobic Plate Count: 0.92 log CFU/mL
Coliform bacteria [2]; [4]
  Average number of microorganisms in process water, Coliform Count: 0 log CFU/mL
Coliform bacteria [2]; [5]
  Average number of microorganisms in process water, Coliform Count: 0 log CFU/mL
Coliform bacteria [2]; [6]
  Average number of microorganisms in process water, Coliform Count: 0 log CFU/mL
Yeast and mold; [4]
  Average number of microorganisms in process water, Yeast & Mold Count: 2.02 log CFU/mL
Yeast and mold; [5]
  Average number of microorganisms in process water, Yeast & Mold Count: 1.86 log CFU/mL
Yeast and mold; [6]
  Average number of microorganisms in process water, Yeast & Mold Count: 5.48 log CFU/mL
Aerobic Bacteria; [7]
  Average log reduction on fresh-cut vegetables, Aerobic Bacteria Reduction: 0.84 log
Aerobic Bacteria; [8]
  Average log reduction on fresh-cut vegetables, Aerobic Bacteria Reduction: 1.07 log
Aerobic Bacteria; [9]
  Average log reduction on fresh-cut vegetables, Aerobic Bacteria Reduction: 1.54 log
Coliform bacteria [3]; [7]
  Average log reduction on fresh-cut vegetables, Coliform Bacteria Reduction: >0.88 log
Coliform bacteria [3]; [8]
  Average log reduction on fresh-cut vegetables, Coliform Bacteria Reduction: 0.77 log
Coliform bacteria [3]; [9]
  Average log reduction on fresh-cut vegetables, Coliform Bacteria Reduction: >1.58 log
Yeast & Mold; [7]
  Average log reduction on fresh-cut vegetables, Yeast & Mold Reduction: 0.77 log
Yeast & Mold; [8]
  Average log reduction on fresh-cut vegetables, Yeast & Mold Reduction: 0.68 log
Escherichia coli O157:H7; 20 ppm POAA
  reduction in the E. coli O157:H7 in tomato wash water: 57%
Escherichia coli O157:H7; 40 ppm POAA
  reduction in the E. coli O157:H7 in tomato wash water: 88%
Escherichia coli O157:H7; 60 ppm POAA
  reduction in the E. coli O157:H7 in tomato wash water: 94%
Salmonella javiana; 20 ppm POAA
  reduction in amounts of S. javiana: no reduction
Salmonella javiana; 40 ppm POAA
  reduction in amounts of S. javiana: no reduction
Salmonella javiana; 60 ppm POAA
  reduction in amounts of S. javiana: 91%
Listeria monocytogenes; 20 ppm POAA
  reduction of L. monocytogenes on tomatoes: 84%
Listeria monocytogenes; 40 ppm POAA
  reduction of L. monocytogenes on tomatoes: 95%
Listeria monocytogenes; 60 ppm POAA
  reduction of L. monocytogenes on tomatoes: 98%
